Drawing on patent US7585859B2, “PDE4B inhibitors and uses therefor” (Plexxikon, Inc., priority 2004, dated 2009), this text covers IC50 for 15 compounds.

Each structure is given as a SMILES string.

The subject of assay [1] is TNF alpha production in LPS-stimulated human blood (Buffy coat). Kind of assay: TNF alpha production by stimulation with LPS in whole blood cultures. The class given is cell-based. To be noted: Homo sapiens; Table 1B, Formula I compounds; read-out: IC50 h TNFα. How it is done:
Compounds were assayed to generate IC50 numbers as described in Example 54, using the following assay protocol (see Tables 3B and 4B for compounds and results).
Protocol • 1) Obtained 20 mM DMSO aliquots of desired concentrations of compounds (see Tables 3B and 4B for compounds tested and results). Placed 2 μl/well compound in DMSO in the top row of the dilution plate. Added 98 μl of RPMI 1640 media w/2.5% heat inactivated FBS.
2) Made the same media with 2% DMSO in it. Added 60 μl/well to well to make compound titration. Took 30 μl of top row and did a 1:3 dilution down the plate. In column 11 added 4 wells of 50 μM roflumilast and piclamilast. In column 12 added 2% DMSO media.
3) Transfered 20 μl/well into assay plates in duplicate.
4) Obtained human Buffy coat.
5) Diluted blood with 7 volumes of RPMI 1640 media with 1% P/S and 2.5% heat inactivated FBS (a 1:8 dilution)
6) Added160 μl/well of diluted blood to the assay plates.
7) Incubated for 1 hour at 37 degrees 5% CO2
8) Diluted LPS (which was already diluted to 1 mg/ml in PBS, 20 μl aliquots frozen −20 C.) to 10× desired final concentration to make a […] dilution (final concentration should be 100 ng/ml).
9) After 1 hour incubation added 20 μl/well of LPS to plates. A non-LPS treated background was also prepared. Samples were put on the shaker for a one minute 900 rpm.
10) Incubated for 4 hours in incubator.
11) After incubation, put on the shaker for a one minute 900 rpm and spun plate at 100 g for 10 minutes, Decel 5.
12) Carefully pipetted the top 75 μl supernatant into a new plate. Samples were frozen as needed.
Biosource hu-TNF ALPHA ELISA
• REAGENTS USED • DPBS 10×: VWR45000-428 (dilute 1:10 with Millipore Water) • TWEEN 20: FISHER BP337-500 • CAPTURE AND DETECTION ANTIBODIES: R&D DY510E • STREP-HRP: Biosource part SNN4004X • COLOR REAGENTS: R&D DY994 • STOP SOLUTION: from chemistry, or R&D DY999 • 1) Thawed samples to RT as needed. • 2) Added 50 μl Incubation buffer/well. • 3) Added 50 μl blood samples +50 μl Diluent buffer • 4) Incubated 2 hours at room temp. • 5) Washed the plate 4× with 300 μl/well wash buffer with microfill. Wash buffer was DPBS with 0.05% Tween pH 7.2-7.4 • 6) Added 100 μl biotinylated anti-TNFalpha • 7) Incubateed 1 hours at room temp. • 8) Washed the plate 4× with 300 μl/well wash buffer with microfill. Wash buffer was DPBS with 0.05% Tween pH 7.2-7.4 • 9) Added^100 μl Streptavidin-HRP working solution • 10) Incubated for 30 minutes at room temp. • 11) Washed the plate 4× with 300 μl/well wash buffer with microfill. Wash buffer was DPBS with 0.05% Tween pH 7.2-7.4 • 12) Added 100 μl Chromagen • 13) Incubated in the dark for 30 minutes until the blue color developed satisfactorily. • 14) Added 100 μl/well stop solution (2 N H2SO4). • 15) Read plate on WallacVictor at 450 nm for 0.1 sec/well

For assay [2], the target named is T1, PDE4B: The catalytic domain of human PDE4B from S152-S528 (Homo sapiens, UniProt Q07343).
T1 construct: His6 (N); thrombin cleavage site (N); made in house; host or cells: E. coli
T1 sequence (Q07343 with tags, fused parts or gaps): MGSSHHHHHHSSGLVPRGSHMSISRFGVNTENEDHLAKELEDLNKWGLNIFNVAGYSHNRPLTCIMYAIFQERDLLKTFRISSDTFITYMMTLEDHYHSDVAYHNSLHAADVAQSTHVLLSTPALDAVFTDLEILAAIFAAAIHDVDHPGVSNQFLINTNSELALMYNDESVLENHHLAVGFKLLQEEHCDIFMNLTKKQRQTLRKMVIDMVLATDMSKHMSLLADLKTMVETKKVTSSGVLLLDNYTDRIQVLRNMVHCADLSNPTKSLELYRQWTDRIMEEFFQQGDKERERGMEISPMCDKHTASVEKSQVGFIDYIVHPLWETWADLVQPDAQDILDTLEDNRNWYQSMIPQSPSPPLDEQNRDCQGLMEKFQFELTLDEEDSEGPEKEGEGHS
Kind of assay: PDE4 IC50 determination by Scintillation Proximity Assay, PDE4B. The format is biochemical. The settings on record: Table 1B, Formula I compounds; read-out: IC50 PDE4B. The procedure, abridged: (§1)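 Scintillation counts reflected [^3H]AMP captured on yttrium silicate SPA beads after enzyme hydrolysed [^3H]cAMP for 30 min at 30°. PDE4B was used at 80 ng/ml and PDE4D at 4 ng/ml. IC50 values came from non-linear regression.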
(In general: SPA uses beads or plates that emit light when radiolabelled molecules are held near them.)

In another assay the target is T2, PDE4D (Homo sapiens, UniProt Q08499).
T2 construct: PDE4D: The catalytic domain of human PDE4B from S3 16-V692; His6 (N); thrombin cleavage site (N); made in house; host or cells: E. coli
T2 sequence (Q08499 380-756): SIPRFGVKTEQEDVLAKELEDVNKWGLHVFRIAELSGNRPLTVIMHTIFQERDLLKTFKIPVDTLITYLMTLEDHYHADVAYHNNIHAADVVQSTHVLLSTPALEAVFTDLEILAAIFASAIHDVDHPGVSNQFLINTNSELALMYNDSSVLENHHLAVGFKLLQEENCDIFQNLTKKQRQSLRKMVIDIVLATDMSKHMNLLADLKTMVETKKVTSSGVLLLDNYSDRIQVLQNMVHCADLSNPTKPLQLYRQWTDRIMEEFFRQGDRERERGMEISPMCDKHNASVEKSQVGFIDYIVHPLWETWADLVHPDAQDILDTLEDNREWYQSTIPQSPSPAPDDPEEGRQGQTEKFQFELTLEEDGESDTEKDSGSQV
Kind of assay: PDE4 IC50 determination by Scintillation Proximity Assay, PDE4D. The settings on record: Table 1B, Formula I compounds; read-out: IC50 PDE4D. The class given is biochemical. An outline of the steps: as §1

Assay [3] has as its target T3, full-length human PDE4D5 isozyme (Homo sapiens, UniProt Q08499).
T3 construct: The full-length human PDE4D5 isozyme; His6 (N); TEV cleavage site (N); made in house; host or cells: baculovirus infected insect cells (unpurified lysate)
Kind of assay: PDE4 IC50 determination by Scintillation Proximity Assay, PDE4D5. The format is biochemical. To be noted: Table 1B, Formula I compounds; read-out: IC50 PDE4D5. The procedure, abridged: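 Unpurified His6-tagged full-length human PDE4D5 from baculovirus-infected insect cell lysate, 0.083 μl glycerol stock/ml, hydrolysed [3H]cAMP in Tris pH 7.5/MgCl/EGTA buffer, 30 min at 30°. ZnSO4/SPA beads stop; [3H]AMP counted. Controls: DMSO and roflumilast; 11-point duplicate curves, nonlinear-regression IC50.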

In assay [4] the target is T4, full-length human PDE4B2 isozyme (Homo sapiens, UniProt Q07343).
T4 construct: The full-length human PDE4B2 isozyme; His6 (N); TEV cleavage site (N); made in house; host or cells: baculovirus infected insect cells (unpurified lysate)
T4 sequence (Q07343 1-564 isoform Q07343-2): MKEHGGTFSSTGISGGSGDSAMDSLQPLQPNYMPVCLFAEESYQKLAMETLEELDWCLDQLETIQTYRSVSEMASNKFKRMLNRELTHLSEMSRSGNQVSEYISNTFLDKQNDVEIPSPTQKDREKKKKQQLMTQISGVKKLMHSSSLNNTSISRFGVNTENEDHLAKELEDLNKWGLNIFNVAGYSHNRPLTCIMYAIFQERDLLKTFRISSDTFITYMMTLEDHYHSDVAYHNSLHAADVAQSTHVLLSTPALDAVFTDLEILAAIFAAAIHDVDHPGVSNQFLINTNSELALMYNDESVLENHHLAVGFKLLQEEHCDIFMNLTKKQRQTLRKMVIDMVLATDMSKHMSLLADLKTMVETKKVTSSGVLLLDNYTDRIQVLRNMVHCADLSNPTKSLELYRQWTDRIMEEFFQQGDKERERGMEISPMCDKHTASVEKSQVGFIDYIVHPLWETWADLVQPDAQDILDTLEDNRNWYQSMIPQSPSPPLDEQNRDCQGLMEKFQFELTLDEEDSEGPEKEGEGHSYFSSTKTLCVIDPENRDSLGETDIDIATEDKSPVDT
Kind of assay: PDE4 IC50 determination by Scintillation Proximity Assay, PDE4B2. The format is biochemical. The settings on record: Table 1B, Formula I compounds; read-out: IC50 PDE4B2. An outline of the steps: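 Unpurified His6-TEV-tagged full-length human PDE4B2 from baculovirus-infected insect cell lysate (2.5 μl of 50% glycerol stock/ml) hydrolysed [3H]cAMP in 50 mM Tris pH 7.5, 8.3 mM MgCl, 1.7 mM EGTA, 0.01% BSA for 30 min at 30°. Stopped with SPA beads in 18 mM ZnSO4; [3H]AMP scintillation counted, IC50 by non-linear regression.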

T3 sequence (Q08499 1-745 isoform Q08499-6): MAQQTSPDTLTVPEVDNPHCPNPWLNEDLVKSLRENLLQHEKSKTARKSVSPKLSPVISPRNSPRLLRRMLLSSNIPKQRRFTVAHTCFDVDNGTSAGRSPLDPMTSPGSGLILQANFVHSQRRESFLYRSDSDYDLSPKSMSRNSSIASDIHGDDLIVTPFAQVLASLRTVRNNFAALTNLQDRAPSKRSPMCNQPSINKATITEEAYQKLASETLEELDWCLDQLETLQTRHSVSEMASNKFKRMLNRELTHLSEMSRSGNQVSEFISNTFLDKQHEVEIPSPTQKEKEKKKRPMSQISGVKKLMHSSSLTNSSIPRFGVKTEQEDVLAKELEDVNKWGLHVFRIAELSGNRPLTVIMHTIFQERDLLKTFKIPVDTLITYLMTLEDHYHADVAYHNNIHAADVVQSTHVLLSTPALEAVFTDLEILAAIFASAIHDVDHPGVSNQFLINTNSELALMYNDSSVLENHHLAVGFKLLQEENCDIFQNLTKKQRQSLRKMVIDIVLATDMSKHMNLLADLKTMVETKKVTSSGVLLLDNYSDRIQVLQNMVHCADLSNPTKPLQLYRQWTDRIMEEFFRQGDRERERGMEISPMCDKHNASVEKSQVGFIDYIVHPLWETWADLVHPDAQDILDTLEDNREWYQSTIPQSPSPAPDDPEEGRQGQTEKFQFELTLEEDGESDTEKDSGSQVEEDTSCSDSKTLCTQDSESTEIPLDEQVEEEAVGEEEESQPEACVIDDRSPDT

What is called IC50 is the concentration needed to halve the response being measured. Turning to `N#Cc1c(Nc2ccccc2)sc(C(=O)c2ccc(Cl)cc2)c1N` [Compound 1-20, 4-Amino-5-(4-chloro-benzoyl)-2-phenylamino-thiophene-3-carbonitrile], the IC50 (in assay [1]; in assay [2]; at PDE4D; in assay [3]; in assay [4]) was below 10 µM throughout.
As to `COc1ccc(OC)c(C(=O)c2sc(NC3CCCC3)c(C#N)c2N)c1` [Compound 1-40], the IC50 in assay [1] was above 10 µM; in assay [2] it was below 10 µM; at PDE4D it was below 10 µM; in assay [3], below 10 µM; in assay [4], below 10 µM.
On to `COc1ccc(Nc2sc(C(=O)c3ccccc3Cl)c(N)c2C#N)cc1` [Compound 1-110, 4-Amino-5-(2-chloro-benzoyl)-2-(4-methoxy-phenylamino)-thiophene-3-carbonitrile], for which the IC50 (in assay [1]; in assay [2]; on PDE4D; in assay [3]; in assay [4]) was below 10 µM in each case.
Turning to `CC(C)CNc1sc(C(=O)c2cc(-c3ccccc3)no2)c(N)c1C#N` [Compound 1-209, 4-Amino-2-isobutylamino-5-(3-phenyl-isoxazole-5-carbonyl)-thiophene-3-carbonitrile], the IC50 was above 10 µM in assay [1]; below 10 µM in assay [2]; below 10 µM on PDE4D; below 10 µM in assay [3]; below 10 µM in assay [4].
Regarding `Cc1nc(-c2cnccn2)sc1C(=O)c1sc(NC2CCCC2)c(C#N)c1N` [Compound 1-219, 4-Amino-2-cyclopentylamino-5-(4-methyl-2-pyrazin-2-yl-thiazole-5-carbonyl)-thiophene-3-carbonitrile], the IC50 (in assay [1]; in assay [2]; at PDE4D; in assay [3]; in assay [4]) was below 10 µM in each case.
As to `N#Cc1c(NC2CCCC2)sc(C(=O)c2cc(-c3ccc([N+](=O)[O-])cc3)no2)c1N` [Compound 1-220, 4-Amino-2-cyclopentylamino-5-[3-(4-nitro-phenyl)-isoxazole-5-carbonyl]-thiophene-3-carbonitrile], the IC50 in assay [1] is above 10 µM; in assay [2], below 10 µM; at PDE4D, above 10 µM; in assay [3] it was above 10 µM; in assay [4] it was below 10 µM.
As for `CCC(C)Nc1sc(C(=O)c2cc(-c3ccccc3)no2)c(N)c1C#N` (stereo not drawn) [Compound 1-222, 4-Amino-2-sec-butylamino-5-(3-phenyl-isoxazole-5-carbonyl)-thiophene-3-carbonitrile], the IC50 in assay [1] was above 10 µM; in assay [2] it was below 10 µM; on PDE4D, below 10 µM; in assay [3] it was above 10 µM; in assay [4], below 10 µM.
For the compound `CC(C)C(C)Nc1sc(C(=O)c2cc(-c3ccccc3)no2)c(N)c1C#N` (stereo not drawn) [Compound 1-223, 4-Amino-2-(1,2-dimethyl-propylamino)-5-(3-phenyl-isoxazoie-5-carbonyl)-thiophene-3-carbonitrile], the IC50 in assay [1] is above 10 µM; in assay [2] it was below 10 µM; on PDE4D it was above 10 µM; in assay [3], above 10 µM; in assay [4] it was below 10 µM.
In the case of `CC(C)Nc1sc(C(=O)c2cc(-c3ccc(Cl)c(Cl)c3)no2)c(N)c1C#N` [Compound 1-225], the IC50 is above 10 µM in assay [1]; below 10 µM in assay [2]; above 10 µM at PDE4D; above 10 µM in assay [3]; below 10 µM in assay [4].
Regarding `CCC(C)Nc1sc(C(=O)c2cc(-c3ccccc3)no2)c(N)c1C(N)=O` (stereo not drawn) [Compound 1-244, 4-Amino-2-sec-butylamino-5-(3-phenyl-isoxazole-5-carbonyl)-thiophene-3-carboxylic acid amide], the IC50 (in assay [1]; in assay [2]; at PDE4D; in assay [3]; in assay [4]) was below 10 µM throughout.
Take `CC(C)CNc1sc(C(=O)c2cc(-c3ccc(Cl)c(Cl)c3)no2)c(N)c1C(N)=O` [Compound 1-245, 4-Amino-5-[3-(3,4-dichloro-phenyl)-isoxazole-5-carbonyl]-2-isobutylamino-thiophene-3-carboxylic acid amide]: the IC50 (in assay [1]; in assay [2]; at PDE4D; in assay [3]; in assay [4]) was below 10 µM each time.
Consider `CCC(C)Nc1sc(C(=O)c2cc(-c3ccc(Cl)c(Cl)c3)no2)c(N)c1C#N` (stereo not drawn) [Compound 1-247, 4-Amino-2-sec-butylamino-5-[3-(3,4-dichloro-phenyl)-isoxazole-5-carbonyl]-thiophene-3-carbonitrile], for which the IC50 is above 10 µM in assay [1]; below 10 µM in assay [2]; above 10 µM at PDE4D; above 10 µM in assay [3]; below 10 µM in assay [4].
Take `N#Cc1c(NC2CCCC2)sc(C(=O)c2cc(-c3ccc(N)cc3)no2)c1N` [Compound 1-250, 4-Amino-5-[3-(4-amino-phenyl)-isoxazole-5-carbonyl]-2-cyclopentylamino-thiophene-3-carbonitrile]: the IC50 in assay [1] was above 10 µM; in assay [2] it was below 10 µM; at PDE4D, below 10 µM; in assay [3], below 10 µM; in assay [4], below 10 µM.
As to `Cc1nc(-c2cnccn2)sc1C(=O)c1sc(NC2CCCC2)c(C(N)=O)c1N` [Compound 1-252, 4-Amino-2-cyclopentylamino-5-(4-methyl-2-pyrazin-2-yl-thiazole-5-carbonyl)-thiophene-3-carboxylic acid amide], the IC50 in assay [1] was above 10 µM; in assay [2], below 10 µM; on PDE4D, below 10 µM; in assay [3], below 10 µM; in assay [4], below 10 µM.
On to `NC(=O)c1c(NC2CCCC2)sc(C(=O)c2cc(-c3ccc(N)cc3)no2)c1N` [Compound 1-253, 4-Amino-5-[3-(4-amino-phenyl)-isoxazole-5-carbonyl]-2-cyclopentylamino-thiophene-3-carboxylic acid amide], for which the IC50 in assay [1] was above 10 µM; in assay [2], below 10 µM; on PDE4D, below 10 µM; in assay [3], below 10 µM; in assay [4], below 10 µM.
